Measured values as given in patent publication US20260285850A1, “SUBSTITUTED OXAZOLIDINONES AND IMIDAZOLINONES AS HERBICIDES” (FMC CORPORATION, priority 2023, published 2026).

How the values were obtained:
Assay type in all cases: in vivo
[1] = test system: ryegrass, Italian (italian ryegrass, Lolium multiflorum); assay: Test A preemergence soil spray, visual injury rating 0-100; conditions: 10 days, 0 = no effect, 100 = complete control
Summary of the method: (§1)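 Scale 0–100 (no effect to complete control), visual, versus untreated controls, read 10 days after application. Application: preemergence directed spray onto seeded loam–sand soil, or postemergence to young plants; formulation in non-phytotoxic solvent with surfactant.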

[2] = test system: palmer (palmer amaranth, palmer pigweed, Amaranthus palmeri); assay: as above; conditions: 10 days, 0 = no effect, 100 = complete control
Summary of the method: as §1

[3] = test system: blackgrass (Alopecurus myosuroides); assay: as above; conditions: 10 days, 0 = no effect, 100 = complete control
Summary of the method: as §1

[4] = test system: barnyardgrass (Echinochloa crus-galli); assay: as above; conditions: 10 days, 0 = no effect, 100 = complete control
Summary of the method: as §1

soybean (Glycine max) [5] = assay: as above; conditions: 10 days, 0 = no effect, 100 = complete control
Summary of the method: as §1

[6] = test system: green foxtail (Setaria viridis); assay: as above; conditions: 10 days, 0 = no effect, 100 = complete control
Summary of the method: as §1

kochia (Bassia scoparia) [7] = assay: as above; conditions: 10 days, 0 = no effect, 100 = complete control
Summary of the method: as §1

[8] = test system: oat, wild (wild oat, Avena fatua); assay: as above; conditions: 10 days, 0 = no effect, 100 = complete control
Summary of the method: as §1

corn (Zea mays) [9] = assay: as above; conditions: 10 days, 0 = no effect, 100 = complete control
Summary of the method: as §1

[10] = test system: wheat (Triticum aestivum); assay: as above; conditions: 10 days, 0 = no effect, 100 = complete control
Summary of the method: as §1

[11] = test system: ragweed (common ragweed, Ambrosia artemisiifolia); assay: as above; conditions: 10 days, 0 = no effect, 100 = complete control
Summary of the method: as §1

[12] = test system: barnyardgrass (Echinochloa crusgalli); assay: Test B flooded paddy test, visual plant response rating 0-100; conditions: 250 g ai/ha, Flood, applied to paddy water, evaluated after 13 days
Summary of the method: (§2)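 Each species was raised to two leaves before flooding to a 3 cm depth and dosing the water with compound. Injury was assessed by eye after 13 days under greenhouse conditions.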

[13] = test system: ducksalad (Heteranthera limosa); assay: as above; conditions: 250 g ai/ha, Flood, applied to paddy water, evaluated after 13 days
Summary of the method: as §2

rice (Oryza sativa) = assay: as above; conditions: 250 g ai/ha, Flood, applied to paddy water, evaluated after 13 days
Summary of the method: as §2

[14] = test system: sedge, umbrella (small-flower umbrella sedge, Cyperus difformis); assay: as above; conditions: 250 g ai/ha, Flood, applied to paddy water, evaluated after 13 days
Summary of the method: as §2

[15] = test system: horseweed (Erigeron canadensis); assay: Test A postemergence application, visual injury rating 0-100; conditions: 10 days
Summary of the method: as §1

[16] = test system: ryegrass, Italian (italian ryegrass, Lolium multiflorum); assay: as above; conditions: 10 days
Summary of the method: as §1

[17] = test system: palmer (palmer amaranth, palmer pigweed, Amaranthus palmeri); assay: as above; conditions: 10 days
Summary of the method: as §1

[18] = test system: blackgrass (Alopecurus myosuroides); assay: as above; conditions: 10 days
Summary of the method: as §1

[19] = test system: barnyardgrass (Echinochloa crus-galli); assay: as above; conditions: 10 days
Summary of the method: as §1

soybean (Glycine max) [20] = assay: as above; conditions: 10 days
Summary of the method: as §1

[21] = test system: green foxtail (Setaria viridis); assay: as above; conditions: 10 days
Summary of the method: as §1

[22] = test system: galium (catchweed bedstraw, Galium aparine); assay: as above; conditions: 10 days
Summary of the method: as §1

kochia (Bassia scoparia) [23] = assay: as above; conditions: 10 days
Summary of the method: as §1

[24] = test system: oat, wild (wild oat, Avena fatua); assay: as above; conditions: 10 days
Summary of the method: as §1

corn (Zea mays) [25] = assay: as above; conditions: 10 days
Summary of the method: as §1

[26] = test system: wheat (Triticum aestivum); assay: as above; conditions: 10 days
Summary of the method: as §1

[27] = test system: ragweed (common ragweed, Ambrosia artemisiifolia); assay: as above; conditions: 10 days
Summary of the method: as §1

[28] = 31 g ai/ha, postemergence, 0 = no effect, 100 = complete control
[29] = Postemergence, 125 g ai/ha, 0 is no effect, 100 is complete control

## COC(=O)C1=CCC(NC(=O)C2(C)CN(c3cc(F)cc(F)c3)C(=O)O2)C1 (stereo not shown) [Compound 21]
[1]; 31 g ai/ha
  Ryegrass, Italian plant response rating (0-100): 50
[1]; 125 g ai/ha
  Ryegrass, Italian plant response rating (0 to 100 scale): 90
[2]; 31 g ai/ha
  Amaranth, Palmer plant response rating (0-100): 40
[2]; 125 g ai/ha
  Amaranth, Palmer plant response rating (0 to 100 scale): 100
[3]; 31 g ai/ha
  Blackgrass plant response rating (0-100): 0
[3]; 125 g ai/ha
  Blackgrass plant response rating (0 to 100 scale): 90
[4]; 31 g ai/ha
  Barnyardgrass plant response rating (0-100): 50
[4]; 125 g ai/ha
  Barnyardgrass plant response rating (0 to 100 scale): 100
Soybean (Glycine max) [5]; 31 g ai/ha
  Soybean plant response rating (0-100): 50
Soybean (Glycine max) [5]; 125 g ai/ha
  Soybean plant response rating (0 to 100 scale): 80
[6]; 31 g ai/ha
  Foxtail, Green plant response rating (0-100): 90
[6]; 125 g ai/ha
  Foxtail, Green plant response rating (0 to 100 scale): 100
Kochia (Bassia scoparia) [7]; 31 g ai/ha
  Kochia plant response rating (0-100): 0
Kochia (Bassia scoparia) [7]; 125 g ai/ha
  Kochia plant response rating (0 to 100 scale): 90
[8]; 31 g ai/ha
  Oat, Wild plant response rating (0-100): 60
[8]; 125 g ai/ha
  Oat, Wild plant response rating (0 to 100 scale): 80
Corn (Zea mays) [9]; 31 g ai/ha
  Corn plant response rating (0-100): 60
Corn (Zea mays) [9]; 125 g ai/ha
  Corn plant response rating (0 to 100 scale): 90
[10]; 31 g ai/ha
  Wheat plant response rating (0-100): 80
[10]; 125 g ai/ha
  Wheat plant response rating (0 to 100 scale): 90
[11]; 31 g ai/ha
  Ragweed plant response rating (0-100): 30
[11]; 125 g ai/ha
  Ragweed plant response rating (0 to 100 scale): 30
[12]
  Plant response rating, Barnyardgrass (0 to 100 scale, 0 is no effect and 100 is complete control): 90
[13]
  Plant response rating, Ducksalad (0 to 100 scale, 0 is no effect and 100 is complete control): 90
Rice (Oryza sativa)
  Plant response rating, Rice (0 to 100 scale, 0 is no effect and 100 is complete control): 90
[14]
  Plant response rating, Sedge, Umbrella (0 to 100 scale, 0 is no effect and 100 is complete control): 95
[15]; [28]
  Horseweed plant response rating (0-100): 20
[15]; [29]
  Horseweed plant response rating (0 to 100 scale): 70
[16]; [28]
  Ryegrass, Italian plant response rating (0-100): 90
[16]; [29]
  Ryegrass, Italian plant response rating (0 to 100 scale): 40
[17]; [28]
  Amaranth, Palmer plant response rating (0-100): 60
[17]; [29]
  Amaranth, Palmer / Pigweed, Palmer plant response rating (0 to 100 scale): 90
[18]; [28]
  Blackgrass plant response rating (0-100): 90
[18]; [29]
  Blackgrass plant response rating (0 to 100 scale): 100
[19]; [28]
  Barnyardgrass plant response rating (0-100): 100
[19]; [29]
  Barnyardgrass plant response rating (0 to 100 scale): 100
Soybean (Glycine max) [20]; [28]
  Soybean plant response rating (0-100): 80
Soybean (Glycine max) [20]; [29]
  Soybean plant response rating (0 to 100 scale): 90
[21]; [28]
  Foxtail, Green plant response rating (0-100): 90
[21]; [29]
  Foxtail, Green plant response rating (0 to 100 scale): 90
[22]; [28]
  Galium plant response rating (0-100): 80
[22]; [29]
  Galium plant response rating (0 to 100 scale): 80
Kochia (Bassia scoparia) [23]; [28]
  Kochia plant response rating (0-100): 80
Kochia (Bassia scoparia) [23]; [29]
  Kochia plant response rating (0 to 100 scale): 80
[24]; [28]
  Oat, Wild plant response rating (0-100): 90
[24]; [29]
  Oat, Wild plant response rating (0 to 100 scale): 100
Corn (Zea mays) [25]; [28]
  Corn plant response rating (0-100): 100
Corn (Zea mays) [25]; [29]
  Corn plant response rating (0 to 100 scale): 100
[26]; [28]
  Wheat plant response rating (0-100): 90
[26]; [29]
  Wheat plant response rating (0 to 100 scale): 90
[27]; [28]
  Ragweed plant response rating (0-100): 40
[27]; [29]
  Ragweed plant response rating (0 to 100 scale): 70
